From paper PMC5136371, “Acetylcholinesterase and Cytotoxic Activity of Chemical Constituents of Clutia lanceolata Leaves and its Molecular Docking Study” (Natural Products and Bioprospecting, 2016)
Like-named read-outs stand apart in the source and are kept apart here.

Tests used:
human recombinant AChE = target: T1, human recombinant AChE (Homo sapiens, UniProt P22303); assay: biochemical
T1 construct: purchased Sigma-Aldrich
Procedure: AChE stock solution was prepared by dissolving human recombinant AChE (EC: 3.1.1.7) lyophilized powder (Sigma-Aldrich) in 0.1 M phosphate buffer (pH = 8.0) containing Triton X-100 (0.1 %). […] Increasing concentrations of the tested inhibitor were added to the assay solution and pre-incubated for 5 min at 37 °C with the enzyme followed by the addition of the substrate. Initial rate assays were performed at 37 °C using a Jasco V-530 double beam Spectrophotometer. The absorbance value at 412 nm was recorded for 5 min and enzyme activity was calculated from the slope of the obtained linear trend. Assays were carried out with a blank containing all components except AChE to account for the non-enzymatic reaction. The reaction rates were compared and the percent inhibition due to the presence of tested inhibitors was calculated. […] Tacrine was used as a standard inhibitor.

[1] = system: brine shrimp nauplii (Artemia salina); assay: In vivo cytotoxicity, brine shrimp lethality bioassay; details: 24 h incubation, 10-80 µg/mL, triplicate
Procedure: The in vivo cytotoxicity of compounds (1–4) isolated from the leaves of C. lanceolata was evaluated to brine shrimp nauplii using vincristine sulfate as standard (Fig. S1 †ESI). It is one of the most convenient methods to determine the cytotoxicity of any compound.
Brine shrimp lethality bioassay is commonly used in the bioassay for the bioactive compounds [44, 45]. The in vivo cytotoxicity assay was performed on brine shrimp nauplii (Artemia salina) in accordance with the Mayer method. The egg of brine shrimp were hatched in a tank filled with artificially prepared sea water (brine, 3.8 % NaCl) exposed to incandescent light. Air was supplied at the bottom of the tank with the help of air supplier fitted with tube to keep the shrimps in uniform motion. The assay was performed 24 h after hatching and no food supplement was given during the hatching and experimental periods. A test sample (5.0 mg) was dissolved in 1 mL DMSO to obtain stock solution of 5 mg/mL. Different concentrations of test samples were obtained from stock solution and placed in separate vials, and the volume of each vial was made up to 5 mL with brine to obtain the desired final concentrations (10, 20, 40, 60 and 80 µg/mL). The negative control was prepared in the same manner without the samples. Vincristine sulphate was used as a standard anti-cancer drug. Thirty brine shrimp nauplii were then placed in each vial. After 24 h of incubation, the vials were observed using a magnifying glass, and the number of survivors in each vial were counted and noted. The LD50 values were calculated using the plot of percentage of mortality and logarithm of concentration. All tests were performed in triplicate and expressed as mean.

[2] = Solubility and air stability of the isolated crystals; type: physicochemical; details: for solubility in organic solvents: all common organic solvents; for stability in air: once isolated

T1 sequence (P22303 32-614): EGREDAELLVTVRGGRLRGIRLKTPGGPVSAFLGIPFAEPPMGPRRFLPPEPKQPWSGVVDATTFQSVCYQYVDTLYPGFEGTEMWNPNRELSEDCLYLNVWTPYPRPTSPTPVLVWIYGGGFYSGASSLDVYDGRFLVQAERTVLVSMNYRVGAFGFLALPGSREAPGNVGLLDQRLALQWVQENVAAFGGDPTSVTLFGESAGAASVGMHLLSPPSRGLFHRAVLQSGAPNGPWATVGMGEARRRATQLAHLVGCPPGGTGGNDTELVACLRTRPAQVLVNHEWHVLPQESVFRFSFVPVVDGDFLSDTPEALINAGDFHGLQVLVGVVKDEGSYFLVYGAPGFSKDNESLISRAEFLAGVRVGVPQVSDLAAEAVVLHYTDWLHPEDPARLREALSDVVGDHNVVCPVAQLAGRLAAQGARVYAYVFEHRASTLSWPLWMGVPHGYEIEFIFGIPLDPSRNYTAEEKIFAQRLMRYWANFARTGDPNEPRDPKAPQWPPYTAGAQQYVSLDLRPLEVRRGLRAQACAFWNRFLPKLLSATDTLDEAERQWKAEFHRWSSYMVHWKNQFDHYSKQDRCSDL

| SMILES | LD50 value [1] [µg/mL] | solubility in organic solvents [2] | stability in air [2] | solubility in water [2] | IC50 (human recombinant AChE) [µM] | other results |
| --- | --- | --- | --- | --- | --- | --- |
| Cc1c(C(=O)O)ccc(O)c1O [Compound 1, 3,4-dihydroxy-2-methylbenzoic acid] | 23.40 ± 0.02 | – | – | – | – | IC50 (human recombinant AChE; human recombinant AChE, pH 8.0, 37 °C, substrate acetylthiocholine iodide 550 µM, triplicate, read-out: IC50 ± SEM for hAChE inhibition): 23.7 ± 0.02 µM; LD50 value ([1]; listed as compound 1): 23.40 µg/mL |
| Oc1ccc2ccccc2c1-c1c(O)ccc2ccccc12 [Compound 2, 2,2′-dihydroxy-1,1′-binaphthyl] | 17.78 ± 0.05 | soluble in all common organic solvents | air-stable | insoluble in water | 21.9 ± 0.05 | LD50 value ([1]; listed as compound 2): 17.78 µg/mL |
| Cc1cc(O)c2c(c1)C(=O)c1cc(O)cc(O)c1C2=O [Compound 3, 1,3,8-trihydroxy-6-methylanthracene-9,10-dione] | 13.80 ± 0.03 | – | – | – | 14.2 ± 0.06 | LD50 value ([1]; listed as compound 3): 13.80 µg/mL |
| COc1cc(/C=C/C(=O)/C=C(O)/C=C/c2ccc(O)c(OC)c2)ccc1O [Compound 4, 5-hydroxy-1,7-bis(4-hydroxy-3-methoxyphenyl)hepta-1,4,6-trien-3-one] | 11.66 ± 0.04 | soluble in all common organic solvents | air-stable | insoluble in water | – | LD50 value ([1]; listed as compound 4): 11.66 µg/mL |
| CC[C@]1(O)C[C@H]2CN(CCc3c([nH]c4ccccc34)[C@@](C(=O)OC)(c3cc4c(cc3OC)N(C=O)[C@H]3[C@@](O)(C(=O)OC)[C@H](OC(C)=O)[C@]5(CC)C=CCN6CC[C@]43[C@@H]65)C2)C1 [Vincristine sulphate, reference compound] | 8.84 ± 0.01 | – | – | – | – | LD50 value ([1]; listed as vincristine sulfate): 8.84 µg/mL |
